From patent publication US8207188B2, “Treatment of diseases modulated by a H4 receptor agonist” (priority 2006, dated 2012)
Entries after “also recorded” stand apart in the source; their conditions may differ.

What was measured:
[1] = Reintroduction of causal food allergen in food allergy patients; assay type: in vivo, human; conditions: baseline patients treated with one drug alone
Description: Allergens tested came from either […], or ALLERBIO.
The direct test with the Nutella® was strongly positive for allergy. This patient was hospitalized in two occasions for the same dramatic allergic reaction to Nutella® spread. Furthermore, the patient presented allergies to pneumoallergens.
Continuation of the above treatment for over 8 months afforded reversal of allergic and digestive symptoms due to food allergy.
The patient under study had survived two cases of anaphylactic shock due to ingestion of shrimps. […] Later the patient was able to ingest five shrimps without any local signs and no global reaction.
Baseline patients had signs of food allergies and the food allergy symptoms were not adequately managed with an H1 antagonist and cromoglycate. A group of 15 patients presenting signs of food allergies is tested with allergens such as the following: peanut, milk, tomato, potato, flour of wheat, soybean, fish, and shrimp. Allergens tested came from either […], or ALLERBIO.
All patients had history of hospitalization and reactions such as Quincke's edema and asthma crisis. Most of the causal allergens were peanut (six patients), egg (four patients) and soybean (five patients) of them (with other several positive food allergens at different degrees of reaction). […]

[2] = tested on: hematopoietic progenitor cells; experiment: CFU of hematopoietic progenitor cells in the presence of Ara-C; assay type: cell-based; conditions: listed as TRQ
Description: Ara-C is a chemotherapeutic agent that kills cancel cells (or actively dividing cells).

H4R = molecular target: T1, H4R (Mus musculus, UniProt Q91ZY2); experiment: Cell cycle status after H4R silencing with siRNA; assay type: cell-based; conditions: 10 μM; H4R siRNA transfected c-kit+ cells
T1 construct: endogenous in cells; host or cells: freshly sorted c-kit+ haematopoietic progenitor cells
T1 sequence (Q91ZY2 1-391): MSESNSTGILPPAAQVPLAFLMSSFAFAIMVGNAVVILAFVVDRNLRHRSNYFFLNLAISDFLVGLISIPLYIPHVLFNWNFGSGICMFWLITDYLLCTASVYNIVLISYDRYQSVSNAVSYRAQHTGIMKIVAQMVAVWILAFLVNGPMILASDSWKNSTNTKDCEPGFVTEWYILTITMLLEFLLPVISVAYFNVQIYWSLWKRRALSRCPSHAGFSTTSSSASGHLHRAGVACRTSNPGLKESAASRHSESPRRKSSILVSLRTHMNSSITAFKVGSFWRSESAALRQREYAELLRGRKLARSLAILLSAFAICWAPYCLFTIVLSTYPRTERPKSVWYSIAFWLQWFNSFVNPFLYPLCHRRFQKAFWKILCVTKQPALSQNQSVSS
Description: H4R silencing was performed with freshly sorted c-kit^+ cells. For transfection, 3 μl of HiPerFect reagent (Qiagen; Courtaboeuf, France) and 4 μl ([…]) of human and 8 μl (80 pmol) of murine H4R siRNA, scrambled FITC-labeled or unconjugated control siRNAs (all from Santa Cruz Biotechnology) were incubated in 50 μl x-vivo medium (Cambrex; East Rutherford, N.J.) for 20 min at room temperature. The mixture was then added to 50 μl of cell suspension at a final concentration of 10^6 cells/ml and incubated for 20 h, when transfection efficiency was verified with scrambled FITC-conjugated siRNA. Cells were then centrifuged and resuspended at a concentration of 10^5 cells/ml in StemSpan medium with growth factor cocktail. The extinction of H4R protein expression was ascertained by FACS analysis after 24 h. After 3 days of culture with or without tritoqualine (10 μM) or Clobenpropit (10 μM) cells were counted and their viability was assessed by trypan blue exclusion. The cell cycle status was assessed after an overnight incubation.

[3] = tested on: Colony Forming Cells (CFC, mouse medullary cells C57B1/6) expressing H4R; experiment: Cell cycle analysis of haematopoietic progenitor cells (propidium iodide, FACS); assay type: cell-based; conditions: 10 μM
Description: Haematopoietic progenitor cells were incubated for 1-3 day(s) with a cocktail of growth factors (IL-3, 10 ng/ml, IL-6 10 ng/ml), […] (50 ng/ml) in the culture medium StemSpan® (without serum) in the presence and absence of TRQ and H4R antagonist (JNJ7777120, Sigma Aldrich).
Cells were later stained with propidium iodide (PI) for the analysis of the cell cycle according to the following protocol:
2×10^6 cells/ml were labelled with CD1 17-FITC for 20 min in PBS, then washed in PBS and stained with PBS 1% formaldehyde, without methanol, at 4° C. for 5 min and again washed in PBS.
The cells were then lysed with 1 ml of PVTritonX100 and RNAse without DNAse (0.2 mcg/ml), PI (20 mcg/ml), and incubated in PBS for 30 min at ambient temperature.
The lysed cells were analyzed with FACS scan (FL2-area IFL2-width) for cell cycle analysis and FL1 for labelling of cell Surface.
10^6 cells enriched in haematopoietic stem cells were incubated in 2 ml of CFSE […] in PBS 10 min, 37° C. The reaction was stopped by the addition of cold PBS in excess (5×) and centrifuged for 5 min at 1700 rpm.
Cells were resuspended in the culture medium StemSpan® (without serum) and stimulated with the growth Factor cocktail, and analyze in FACs scan (FL1) after 72 hours incubation.

SMILES | management of food allergy symptoms with the single drug [1] | protection of cells / cell CFU in the presence of Ara-C [2] | activity inhibiting the cell cycle at the G0/G1 phase after H4R siRNA (H4R) | haematopoietic progenitor cells blocked (G0/G1) [3]
CCOc1c(N)c2c(c(OCC)c1OCC)C(C1c3c(cc4c(c3OC)OCO4)CCN1C)OC2=O (racemic) [Tritoqualine, 7-Amino-4,5,6-triethoxy-3-(5,6,7,8-tetrahydro-4-methoxy-6-methyl-1,3-dioxolo[4,5-g]isoquinolin-5-yl) phthalide] | did not yield satisfactory management | provides protection to the cells; also recorded: cell CFU remains high | – | –
CCOc1c(N)c2c(c(OCC)c1OCC)[C@@H]([C@@H]1c3c(cc4c(c3OC)OCO4)CCN1C)OC2=O [E2] | – | – | reversed | Approximately 60%
CCOc1c(N)c2c(c(OCC)c1OCC)[C@H]([C@H]1c3c(cc4c(c3OC)OCO4)CCN1C)OC2=O [E1] | – | – | reversed | Approximately 48%
